Measurements from article PMC11606603, “The membrane domains of mammalian adenylyl cyclases are lipid receptors” (eLife, 2024).
Values joined by “and” are separate entries in the source; they are usually repeats but may differ in a detail not shown here. Identical values can stand only once.

How the values were obtained:
[1] = target: T1, HEK293 cells permanently transfected with mAC3 (Homo sapiens, UniProt O60266); test: cAMP accumulation assay, isoproterenol-stimulated HEK-mAC3 cells; assay type: cell-based; conditions: for Effect on isoproterenol-stimulated cAMP formation in HEK-mAC3: in words
T1 construct: Human mAC genes were from GenScript and fitted with a C-terminal FLAG-tag; FLAG (C); expressed in transfected cells; host or cells: HEK293, permanently transfected
T1 sequence (O60266 1-1144): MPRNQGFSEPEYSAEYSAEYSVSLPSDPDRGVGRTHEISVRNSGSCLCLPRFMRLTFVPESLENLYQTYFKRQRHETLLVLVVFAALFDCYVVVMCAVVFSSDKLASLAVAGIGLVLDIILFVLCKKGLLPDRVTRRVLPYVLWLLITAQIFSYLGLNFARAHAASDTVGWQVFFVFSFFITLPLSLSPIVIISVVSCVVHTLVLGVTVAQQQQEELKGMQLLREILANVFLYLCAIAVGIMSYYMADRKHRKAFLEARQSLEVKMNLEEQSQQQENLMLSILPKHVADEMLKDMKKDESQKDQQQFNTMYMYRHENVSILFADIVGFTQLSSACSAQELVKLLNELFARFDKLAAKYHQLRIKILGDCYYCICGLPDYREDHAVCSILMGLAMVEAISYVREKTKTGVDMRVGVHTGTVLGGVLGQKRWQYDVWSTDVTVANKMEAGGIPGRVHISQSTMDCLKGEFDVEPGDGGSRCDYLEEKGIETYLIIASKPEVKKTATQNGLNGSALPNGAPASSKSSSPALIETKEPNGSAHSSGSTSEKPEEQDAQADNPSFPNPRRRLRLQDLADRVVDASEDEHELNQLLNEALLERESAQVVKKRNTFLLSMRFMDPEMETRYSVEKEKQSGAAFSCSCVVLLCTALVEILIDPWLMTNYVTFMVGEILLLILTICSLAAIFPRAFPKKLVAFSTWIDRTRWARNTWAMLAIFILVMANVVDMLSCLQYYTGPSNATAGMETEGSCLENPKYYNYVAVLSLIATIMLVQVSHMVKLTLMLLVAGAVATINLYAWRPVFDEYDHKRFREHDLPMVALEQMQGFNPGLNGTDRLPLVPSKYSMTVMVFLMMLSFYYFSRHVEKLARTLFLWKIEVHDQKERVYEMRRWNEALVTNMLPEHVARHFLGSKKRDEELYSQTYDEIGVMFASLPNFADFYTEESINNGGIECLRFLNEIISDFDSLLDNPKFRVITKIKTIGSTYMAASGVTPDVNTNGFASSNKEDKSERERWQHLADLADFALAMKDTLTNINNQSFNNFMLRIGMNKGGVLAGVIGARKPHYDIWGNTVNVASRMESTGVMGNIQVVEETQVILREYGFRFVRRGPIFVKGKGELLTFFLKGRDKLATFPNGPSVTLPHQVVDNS
Method: hAC sequences were from NCBI were: ADCY1: NM_021116.3; ADCY2: NM_020546.2; ADCY3: NM_004036.4; ADCY4: NM_001198568.2; ADCY5: NM_183357.2; ADCY6: NM_015270.4; ADCY7: NM_001114.4; ADCY8: NM_001115.2; ADCY9: NM_001116.3. Human mAC genes were from GenScript and fitted with a C-terminal FLAG-tag. […] The gene was synthesized by GenScript. HEK293 cells were maintained in Dulbeccos Modified Eagle Medium (DMEM) with 10% fetal bovine serum at 37°C and 5% CO2. Transfection with AC plasmids was with PolyJet (SignaGen, Frederick, MD, USA). Permanent cell lines were generated by selection for 7 days with 600 µg/ml G418 and maintained with 300 µg/ml For membrane preparation, cells were tyrpsinized, collected by centrifugation (3000 × g, 5 min) and lysed and homogenized in 20 mM HEPES, pH 7.5, 1 mM Ethylenediaminetetraacetic acid (EDTA), 2 mM MgCl2, 1 mM Dithiothreitol (DTT), one tablet of cOmplete, EDTA-free (per 50 ml) and 250 mM sucrose by 20 strokes in a potter homogenizer on ice. Debris was removed (5 min at 1000 × g, 0°C), membranes were collected at 100,000 × g, 60 min at 0°C, suspended and stored at −80°C in 20 mM MOPS, pH 7.5, 0.5 mM EDTA, 2 mM MgCl2. […] Three cerebral cortices were dissected and homogenized in 4.5 ml cold 48 mM Tris–HCl, pH 7.4, 12 mM MgC1_2, and 0.1 mM Ethylene glycol-bis(β-aminoethyl ether)-N,N,N′,N′-tetraacetic acid (EGTA) with a Polytron hand disperser (Kinematica AG, Switzerland). […] The pellet was washed once with 5 ml 1 mM KHCO3. The final suspension in 2 ml 1 mM KHCO3 was stored in aliquots at −80°C.
HEK293 cells stably expressing mAC isoforms 3, 5, and mAC5(membr)_mAC3(cat) were plated at 2500–10,000 cells/well into 384-well plates. […] Addition of Cisbio HTRF detection reagents stopped the reaction and cAMP levels were determined.

[2] = target: T2, mAC2 (Homo sapiens, UniProt Q08462); test: AC assay, Gsα-stimulated mAC2 in membranes from transfected HEK293 cells; assay type: biochemical; conditions: for mAC2 activity [%] (100% = 300nM Gsα stimulation); 20µM fatty acid concentration: Figure 5-figure supplement 1 left; for mAC2 activity [%] (100% = 300nM Gsα stimulation): Figure 5 B
T2 construct: Human mAC genes were from GenScript and fitted with a C-terminal FLAG-tag; FLAG (C); made in house; host or cells: HEK293, permanently transfected; membrane preparation
T2 sequence (Q08462 whole entry): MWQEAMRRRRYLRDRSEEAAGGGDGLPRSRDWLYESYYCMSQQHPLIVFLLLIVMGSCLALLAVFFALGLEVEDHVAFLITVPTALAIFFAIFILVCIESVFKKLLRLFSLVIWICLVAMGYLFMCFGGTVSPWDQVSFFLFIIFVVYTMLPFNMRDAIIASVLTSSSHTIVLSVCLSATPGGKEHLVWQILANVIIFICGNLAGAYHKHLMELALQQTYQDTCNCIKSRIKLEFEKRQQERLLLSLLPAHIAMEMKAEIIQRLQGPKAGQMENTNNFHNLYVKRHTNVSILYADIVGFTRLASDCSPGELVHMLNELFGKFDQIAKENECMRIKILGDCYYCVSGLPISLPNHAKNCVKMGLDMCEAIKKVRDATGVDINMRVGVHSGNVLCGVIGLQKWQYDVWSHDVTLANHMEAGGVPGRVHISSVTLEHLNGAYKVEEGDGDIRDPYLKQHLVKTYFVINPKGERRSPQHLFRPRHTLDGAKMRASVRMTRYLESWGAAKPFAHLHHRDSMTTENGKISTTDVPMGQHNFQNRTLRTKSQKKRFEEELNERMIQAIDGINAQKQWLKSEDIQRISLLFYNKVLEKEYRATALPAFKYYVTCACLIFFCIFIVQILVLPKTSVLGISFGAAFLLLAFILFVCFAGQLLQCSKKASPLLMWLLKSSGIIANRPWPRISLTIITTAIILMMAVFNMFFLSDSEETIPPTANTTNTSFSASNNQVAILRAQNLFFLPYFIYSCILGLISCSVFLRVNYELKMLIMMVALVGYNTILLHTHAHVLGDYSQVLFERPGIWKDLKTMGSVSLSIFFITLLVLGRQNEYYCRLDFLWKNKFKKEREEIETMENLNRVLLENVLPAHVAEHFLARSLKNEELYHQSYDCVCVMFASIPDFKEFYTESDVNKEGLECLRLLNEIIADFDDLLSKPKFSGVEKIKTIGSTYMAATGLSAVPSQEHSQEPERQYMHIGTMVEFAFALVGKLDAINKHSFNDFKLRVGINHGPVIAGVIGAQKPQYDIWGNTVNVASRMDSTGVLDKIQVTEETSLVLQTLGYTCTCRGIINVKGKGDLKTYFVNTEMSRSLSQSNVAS
T2 sequence (P63092 2-394 Q227L partner): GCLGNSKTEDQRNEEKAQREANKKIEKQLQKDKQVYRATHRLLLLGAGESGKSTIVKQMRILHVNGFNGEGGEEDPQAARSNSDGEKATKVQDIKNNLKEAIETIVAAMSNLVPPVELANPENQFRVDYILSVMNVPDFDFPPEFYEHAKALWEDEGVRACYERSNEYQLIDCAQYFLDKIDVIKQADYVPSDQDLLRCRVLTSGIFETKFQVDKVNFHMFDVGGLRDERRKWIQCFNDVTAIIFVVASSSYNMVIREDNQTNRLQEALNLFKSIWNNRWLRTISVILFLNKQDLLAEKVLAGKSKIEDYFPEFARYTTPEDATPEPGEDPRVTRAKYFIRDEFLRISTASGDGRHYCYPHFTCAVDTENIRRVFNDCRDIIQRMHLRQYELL
In short: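 EC50 and IC50 values come from cAMP production, read with a Cisbio cAMP kit and converted via a standard curve. Assay mix held 1 mM ATP, 2 mM MgCl2, 3 mM creatine phosphate and 60 μg/ml creatine kinase in 50 mM MOPS pH 7.5, using transfected HEK293 membranes.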

`CCCCC/C=C\C/C=C\C/C=C\C/C=C\CCCC(=O)NCCO` [Anandamide, arachidonoylethanolamide] was tested, and the “Effect on isoproterenol-stimulated cAMP formation in HEK-mAC3” value [1] was “no effect”.

With `CCCCC/C=C\C/C=C\C/C=C\C/C=C\CCCC(=O)O` [Arachidonic acid, Arachidonic ((5Z,8Z,11Z,14Z)-eicosatetraenoic) acid] the “mAC2 activity [%] (100% = 300nM Gsα stimulation); 20µM fatty acid concentration” value ([2]; 20 µM) was 133% and 137% and 152% and 99% and 147%.

In the case of `CCCCCCCC/C=C\CCCCCCCC(=O)O` [Oleic acid, Oleic ((9Z)-octadecenoic) acid], the “Effect of lipid on 300 nM Gsα-stimulated mAC2” value ([2]; 20 µM, in words) is reported as “significantly enhanced”, the “mAC2 activity [%] (100% = 300nM Gsα stimulation); 20µM fatty acid concentration” value ([2]; 20 µM) is reported as 252% and 212% and 173% and 181% and 196% and 228% and 168% and the “mAC2 activity [%] (100% = 300nM Gsα stimulation)” value ([2]; oleic acid 0.3 µM) is reported as 100%. The “mAC2 activity [%] (100% = 300nM Gsα stimulation)” value ([2]; oleic acid 1 µM) was 98% and 100% and 117% and 87%, the “mAC2 activity [%] (100% = 300nM Gsα stimulation)” value ([2]; oleic acid 3 µM) was 82% and 99% and 116% and 107% and the “mAC2 activity [%] (100% = 300nM Gsα stimulation)” value ([2]; oleic acid 6 µM) was 120% and 95% and 119% and 162% and 110% and 87%. For the same molecule, the “mAC2 activity [%] (100% = 300nM Gsα stimulation)” value ([2]; oleic acid 10 µM) was 157% and 167% and 142% and 171% and 162% and 123%, the “mAC2 activity [%] (100% = 300nM Gsα stimulation)” value ([2]; oleic acid 20 µM) was 196% and 228% and 168% and 252% and 212% and 173% and 181% and the EC50 ([2]; enhancement of 300 nM Gsα-stimulated activity) was 8.6 µM. For the same molecule, the EC50 ([1]; 2.5 µM isoproterenol) was 0.5 µM, the “enhancement of cAMP formation in HEK-mAC3” value ([1]; 2.5 µM isoproterenol) was 1.5 fold and the “AC activity (%); 100%= 2.5µM Isoproterenol stimulation” value (“AC activity (%)” for short) ([1]; HEK-mAC3, oleic acid 0.01 µM) was 132%. The “AC activity (%)” value ([1]; HEK-mAC3, oleic acid 0.03 µM) was 145% and 87%, the “AC activity (%)” value ([1]; HEK-mAC3, oleic acid 0.06 µM) was 118% and 89% and the “AC activity (%)” value ([1]; HEK-mAC3, oleic acid 0.1 µM) was 122% and 118% and 127% and 150%. For the same molecule, the “AC activity (%)” value ([1]; HEK-mAC3, oleic acid 0.3 µM) was 130% and 163%, the “AC activity (%)” value ([1]; HEK-mAC3, oleic acid 0.5 µM) was 140% and 92% and the “AC activity (%)” value ([1]; HEK-mAC3, oleic acid 0.6 µM) was 135% and 121% and 113% and 161%. The “AC activity (%)” value ([1]; HEK-mAC3, oleic acid 3 µM) was 190% and 191% and 198% and 119%, the “AC activity (%)” value ([1]; HEK-mAC3, oleic acid 10 µM) was 199% and 123% and 137% and 198% and 118% and 119% and the “AC activity (%)” value ([1]; HEK-mAC3, oleic acid 50 µM) was 187% and 186% and 134%.

For `CCCCCCCCCCCCCCCCCC(=O)O` [Stearic acid, Stearic (octadecanoic) acid], the “mAC2 activity [%] (100% = 300nM Gsα stimulation); 20µM fatty acid concentration” value ([2]; 20 µM) was 100% and 101% and 84% and 89% and the “Effect on isoproterenol-stimulated cAMP formation in HEK-mAC3” value [1] was “inactive”.
